{"source": "patent US20080063720A1", "about": "“Delivery System” (priority 2004, published 2008)", "key": {"[1]": {"system": "human primary macrophage cells", "assay": "Thapsigargin effect on intranuclear accumulation of quantum dots", "type": "cell-based", "details": "thapsigargin 100 mM for 30 min, washed out before incubation with particles", "experimental": "Nuclear import inhibitor thapsigargin ([…]) was added to the cells for 30 min and subsequently washed out with pre-warmed culture medium prior to incubation with 2.2 nm size (green emitting) CdTe particles."}, "[2]": {"system": "THP-1 differentiated macrophages", "assay": "Brefeldin A effect on intranuclear accumulation of quantum dots", "type": "cell-based, human", "details": "Brefeldin A 20 μg/ml for 30 min, washed out before particles were added", "experimental": "In the studies referred to in FIGS. 1-10, Human THP-1 monocytes, the transformed epithelial cell lines HT-29, HCT-116 and T cell lymphoma cell line HUT-78 were obtained from the European Collection of Animal Cell Cultures (ECACC, Salisbury, UK). Cells were grown in RPMI 1640 medium supplemented with 10% heat-inactivated fetal bovine serum (FBS), 2 mM L-glutamine/L, 100 μg penicillin/ml and […], and incubated at 37° C. in 5% CO2. To induce monocyte to macrophage differentiation, THP-1 cells were cultured in the presence of 100 ng/ml PMA for 72 h.\nPrior to incubation with CdTe particles THP-1 differentiated macrophages were incubated with the Golgi complex disrupter Brefeldin A for 30 min at 20 μg/ml. Following a wash out, green 2.2 nm size CdTe particles were added to the cells."}}}
{"compound": "C/C=C(/C)C(=O)O[C@H]1C(C)=C2[C@H]([C@@H]1OC(=O)CCCCCCC)[C@@](C)(OC(C)=O)C[C@H](OC(=O)CCC)[C@@]1(O)[C@H]2OC(=O)[C@@]1(C)O", "note": "[thapsigargin]", "values": [{"measurement": "effect on intranuclear accumulation of 2.2 nm green CdTe particles", "setting": "[1]", "value": "blockade of intranuclear accumulation"}]}
{"compound": "C[C@H]1CCC/C=C/[C@@H]2C[C@H](O)C[C@H]2[C@H](O)/C=C/C(=O)O1", "note": "[brefeldin A, Brefeldin A]", "values": [{"measurement": "effect on distribution and intranuclear accumulation of 2.2 nm green CdTe particles", "setting": "[2]", "value": "dispersion of quantum dots and partial block of intranuclear accumulation"}]}
